Laboratory results from US20250171495A1, “MUTLI-TARGETED SERINE PROTEASE INHIBITORS FOR TREATMENT OF CANCER AND VIRAL INFECTION” (Washington University, priority 2023, published 2025).

Experiments:
Type in all cases: biochemical
HGFA = target: T1, HGFA (Homo sapiens, UniProt Q04756); assay: HyCoSuL P4-P2 substrate specificity screening, HGFA; details: for P2 Position Substrate Activity for HGFA (percent substrate cleavage/proteolysis): residue fixed at P2 position; for P2 Position Substrate Activity for HGFA (percent substrate cleavage/proteolysis) / P3 Position Substrate Activity for HGFA (percent substrate cleavage/proteolysis): P1-Arg HyCoSuL, 100 μM, best recognized amino acid set to 100%; for P3 Position Various Amino Acids Substrate Activity, HGFA (percent substrate cleavage/proteolysis): residue fixed at P3 position of substrate library; for P4 Position Various Amino Acids Substrate Activity, HGFA (percent substrate proteolysis/cleavage): residue fixed at P4 position of substrate library; for P3 Position Substrate Activity for HGFA (percent substrate cleavage/proteolysis): residue fixed at P3 position
T1 sequence (Q04756 373-655): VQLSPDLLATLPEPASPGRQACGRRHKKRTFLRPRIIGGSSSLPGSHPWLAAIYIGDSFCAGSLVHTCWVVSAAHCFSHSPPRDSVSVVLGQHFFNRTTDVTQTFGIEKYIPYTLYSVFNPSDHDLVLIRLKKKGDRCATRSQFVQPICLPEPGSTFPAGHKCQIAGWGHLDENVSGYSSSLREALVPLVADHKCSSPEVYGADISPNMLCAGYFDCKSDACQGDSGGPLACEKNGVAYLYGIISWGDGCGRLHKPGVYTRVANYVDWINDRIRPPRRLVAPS

matriptase = target: T2, matriptase (Homo sapiens, UniProt Q9Y5Y6); assay: HyCoSuL P4-P2 substrate specificity screening, matriptase; details: for P2 Position Substrate Activity for matriptase (percent substrate cleavage/proteolysis): residue fixed at P2 position; for P2 Position Substrate Activity for matriptase (percent substrate cleavage/proteolysis) / P3 Position Substrate Activity for matriptase (percent substrate cleavage/proteolysis): P1-Arg HyCoSuL, 100 μM, best recognized amino acid set to 100%; for P3 Position Various Amino Acids Substrate Activity, matriptase (percent substrate cleavage/proteolysis): residue fixed at P3 position of substrate library; for P4 Position Various Amino Acids Substrate Activity, matriptase (percent substrate proteolysis/cleavage): residue fixed at P4 position of substrate library; for P3 Position Substrate Activity for matriptase (percent substrate cleavage/proteolysis): residue fixed at P3 position
T2 sequence (Q9Y5Y6 1-855): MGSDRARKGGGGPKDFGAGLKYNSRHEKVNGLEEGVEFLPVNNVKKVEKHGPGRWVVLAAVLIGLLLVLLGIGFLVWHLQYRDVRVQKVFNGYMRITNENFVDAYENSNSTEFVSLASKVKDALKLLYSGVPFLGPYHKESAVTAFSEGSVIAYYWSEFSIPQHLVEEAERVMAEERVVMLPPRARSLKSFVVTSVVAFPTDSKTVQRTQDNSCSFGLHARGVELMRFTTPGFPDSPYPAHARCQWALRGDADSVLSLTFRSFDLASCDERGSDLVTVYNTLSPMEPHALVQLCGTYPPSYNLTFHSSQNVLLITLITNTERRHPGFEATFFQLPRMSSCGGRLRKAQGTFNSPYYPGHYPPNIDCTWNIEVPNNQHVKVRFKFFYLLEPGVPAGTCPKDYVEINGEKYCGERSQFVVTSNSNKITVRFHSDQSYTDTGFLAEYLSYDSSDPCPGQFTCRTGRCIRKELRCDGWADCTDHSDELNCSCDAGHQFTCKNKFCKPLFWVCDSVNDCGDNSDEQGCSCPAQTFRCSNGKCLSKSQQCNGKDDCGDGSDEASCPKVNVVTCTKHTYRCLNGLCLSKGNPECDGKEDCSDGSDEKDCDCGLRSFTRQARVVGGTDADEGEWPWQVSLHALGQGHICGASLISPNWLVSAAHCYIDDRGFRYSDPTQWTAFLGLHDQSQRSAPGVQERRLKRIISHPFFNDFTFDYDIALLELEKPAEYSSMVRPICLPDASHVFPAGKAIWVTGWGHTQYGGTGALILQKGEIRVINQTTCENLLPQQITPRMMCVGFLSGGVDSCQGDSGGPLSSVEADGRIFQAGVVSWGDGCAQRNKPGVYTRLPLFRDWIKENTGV

hepsin = target: T3, hepsin (Homo sapiens, UniProt P05981); assay: HyCoSuL P4-P2 substrate specificity screening, hepsin; details: for P2 Position Substrate Activity for hepsin (percent substrate cleavage/proteolysis): residue fixed at P2 position; for P2 Position Substrate Activity for hepsin (percent substrate cleavage/proteolysis) / P3 Position Substrate Activity for hepsin (percent substrate cleavage/proteolysis): P1-Arg HyCoSuL, 100 μM, best recognized amino acid set to 100%; for P3 Position Various Amino Acids Substrate Activity, hepsin (percent substrate cleavage/proteolysis): residue fixed at P3 position of substrate library; for P4 Position Various Amino Acids Substrate Activity, hepsin (percent substrate proteolysis/cleavage): residue fixed at P4 position of substrate library; for P3 Position Substrate Activity for hepsin (percent substrate cleavage/proteolysis): residue fixed at P3 position
T3 construct: purchased R&D Systems 4776-SE-010
T3 sequence (P05981 163-417 limits assumed): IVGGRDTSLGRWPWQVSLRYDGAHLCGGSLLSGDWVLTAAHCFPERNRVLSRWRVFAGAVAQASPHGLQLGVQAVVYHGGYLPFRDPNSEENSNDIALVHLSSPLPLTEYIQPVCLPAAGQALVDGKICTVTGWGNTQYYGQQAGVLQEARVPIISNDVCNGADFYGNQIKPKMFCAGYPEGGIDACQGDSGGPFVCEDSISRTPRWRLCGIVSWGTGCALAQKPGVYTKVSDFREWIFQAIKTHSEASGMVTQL
T3 sequence (P05981 1-162 partner limits assumed): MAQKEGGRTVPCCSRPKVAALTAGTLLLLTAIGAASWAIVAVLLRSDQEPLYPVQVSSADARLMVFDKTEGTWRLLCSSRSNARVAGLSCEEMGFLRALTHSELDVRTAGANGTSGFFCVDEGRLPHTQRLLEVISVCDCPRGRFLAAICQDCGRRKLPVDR

TMPRSS2 = TMPRSS2 (Homo sapiens, UniProt O15393); assay: PS-SCL / HyCoSuL substrate specificity screening, TMPRSS2; details: for P2 Position Substrate Activity for TMPRSS2 (percent substrate cleavage/proteolysis): residue fixed at P2 position of substrate library; for P2 Position Substrate Activity for TMPRSS2 (percent substrate cleavage/proteolysis) / P3 Position Substrate Activity for TMPRSS2 (percent substrate cleavage/proteolysis): best recognized amino acid set to 100%; for P3 Position Various Amino Acids Substrate Activity, TMPRSS2 (percent substrate cleavage/proteolysis) / P3 Position Substrate Activity for TMPRSS2 (percent substrate cleavage/proteolysis): residue fixed at P3 position of substrate library; for P4 Position Various Amino Acids Substrate Activity, TMPRSS2 (percent substrate proteolysis/cleavage): residue fixed at P4 position of substrate library
Chain of TMPRSS2 (O15393 whole entry): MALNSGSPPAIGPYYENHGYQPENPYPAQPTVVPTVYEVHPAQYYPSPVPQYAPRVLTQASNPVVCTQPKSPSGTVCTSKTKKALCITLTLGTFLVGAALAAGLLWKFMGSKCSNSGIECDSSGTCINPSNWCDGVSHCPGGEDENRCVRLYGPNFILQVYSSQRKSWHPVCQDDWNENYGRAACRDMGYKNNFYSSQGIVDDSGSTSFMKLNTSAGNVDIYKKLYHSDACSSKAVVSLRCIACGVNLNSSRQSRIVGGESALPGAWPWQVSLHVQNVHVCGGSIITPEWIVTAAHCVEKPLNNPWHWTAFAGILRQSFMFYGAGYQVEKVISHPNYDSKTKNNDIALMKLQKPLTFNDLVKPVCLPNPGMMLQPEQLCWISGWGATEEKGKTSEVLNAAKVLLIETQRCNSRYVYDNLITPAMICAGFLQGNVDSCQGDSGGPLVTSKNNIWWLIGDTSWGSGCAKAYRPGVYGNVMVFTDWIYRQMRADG

Row | Substance | P2 Position Substrate Activity for HGFA (percent substrate cleavage/proteolysis) (HGFA) [%] | P3 Position Various Amino Acids Substrate Activity, HGFA (percent substrate cleavage/proteolysis) (HGFA) [%] | P4 Position Various Amino Acids Substrate Activity, HGFA (percent substrate proteolysis/cleavage) (HGFA) [%] | P2 Position Substrate Activity for matriptase (percent substrate cleavage/proteolysis) (matriptase) [%] | P3 Position Various Amino Acids Substrate Activity, matriptase (percent substrate cleavage/proteolysis) (matriptase) [%] | P4 Position Various Amino Acids Substrate Activity, matriptase (percent substrate proteolysis/cleavage) (matriptase) [%] | P2 Position Substrate Activity for hepsin (percent substrate cleavage/proteolysis) (hepsin) [%] | P3 Position Various Amino Acids Substrate Activity, hepsin (percent substrate cleavage/proteolysis) (hepsin) [%] | P4 Position Various Amino Acids Substrate Activity, hepsin (percent substrate proteolysis/cleavage) (hepsin) [%] | P2 Position Substrate Activity for TMPRSS2 (percent substrate cleavage/proteolysis) (TMPRSS2) [%] | P3 Position Various Amino Acids Substrate Activity, TMPRSS2 (percent substrate cleavage/proteolysis) (TMPRSS2) [%] | P4 Position Various Amino Acids Substrate Activity, TMPRSS2 (percent substrate proteolysis/cleavage) (TMPRSS2) [%] | P3 Position Substrate Activity for HGFA (percent substrate cleavage/proteolysis) (HGFA) [%] | P3 Position Substrate Activity for matriptase (percent substrate cleavage/proteolysis) (matriptase) [%] | P3 Position Substrate Activity for hepsin (percent substrate cleavage/proteolysis) (hepsin) [%] | P3 Position Substrate Activity for TMPRSS2 (percent substrate cleavage/proteolysis) (TMPRSS2) [%]
1 | D-Asn | 0.00 | 15.16 | 7.38 | 0 | 2 | 7 | 0.00 | 38.75 | 18.48 | 0.00 | 0.00 | 19.65 |  |  |  | 
2 | D-Asp | 0.00 | 5.37 | 2.25 | 0 | 0 | 1 | 0.00 | 17.18 | 1.98 | 0.00 | 20.28 | 18.22 |  |  |  | 
3 | D-Leu | 0.00 | 7.08 | 10.56 | 0 | 4 | 9 | 0.00 | 20.14 | 24.76 | 0.00 | 0.00 | 28.04 |  |  |  | 
4 | D-Lys | 0.00 |  | 17.66 | 0 | 15 | 14 | 0.00 |  | 49.84 | 0.00 |  | 16.31 | 21.11 | 14.70 | 64.56 | 0.00
5 | D-Phe | 0.00 | 15.22 | 8.13 | 0 | 5 | 6 | 0.00 | 24.92 | 13.15 | 0.00 | 3.80 | 24.14 |  |  |  | 

Now from value to substance:

Row | P2 Position Substrate Activity for HGFA (percent substrate cleavage/proteolysis) (HGFA) [%] | P3 Position Various Amino Acids Substrate Activity, HGFA (percent substrate cleavage/proteolysis) (HGFA) [%] | P4 Position Various Amino Acids Substrate Activity, HGFA (percent substrate proteolysis/cleavage) (HGFA) [%] | P2 Position Substrate Activity for matriptase (percent substrate cleavage/proteolysis) (matriptase) [%] | P3 Position Various Amino Acids Substrate Activity, matriptase (percent substrate cleavage/proteolysis) (matriptase) [%] | P4 Position Various Amino Acids Substrate Activity, matriptase (percent substrate proteolysis/cleavage) (matriptase) [%] | P2 Position Substrate Activity for hepsin (percent substrate cleavage/proteolysis) (hepsin) [%] | P3 Position Various Amino Acids Substrate Activity, hepsin (percent substrate cleavage/proteolysis) (hepsin) [%] | P4 Position Various Amino Acids Substrate Activity, hepsin (percent substrate proteolysis/cleavage) (hepsin) [%] | P2 Position Substrate Activity for TMPRSS2 (percent substrate cleavage/proteolysis) (TMPRSS2) [%] | P3 Position Various Amino Acids Substrate Activity, TMPRSS2 (percent substrate cleavage/proteolysis) (TMPRSS2) [%] | P4 Position Various Amino Acids Substrate Activity, TMPRSS2 (percent substrate proteolysis/cleavage) (TMPRSS2) [%] | P3 Position Substrate Activity for HGFA (percent substrate cleavage/proteolysis) (HGFA) [%] | P3 Position Substrate Activity for matriptase (percent substrate cleavage/proteolysis) (matriptase) [%] | P3 Position Substrate Activity for hepsin (percent substrate cleavage/proteolysis) (hepsin) [%] | P3 Position Substrate Activity for TMPRSS2 (percent substrate cleavage/proteolysis) (TMPRSS2) [%] | Substance
6 | 0.00 |  | 8.03 | 0 | 7 | 7 | 0.00 |  | 20.13 | 0.00 |  | 20.76 | 13.84 | 7.43 | 97.80 | 10.18 | D-Gln
7 | 0.00 | 3.61 | 2.62 | 0 | 2 | 1 | 0.00 | 34.55 | 2.98 | 0.00 | 12.50 | 23.68 |  |  |  |  | D-Glu
8 | 0.00 | 11.09 | 7.79 | 0 | 3 | 7 | 0.00 | 40.09 | 19.33 | 0.00 | 6.35 | 24.51 |  |  |  |  | D-His
9 | 0.00 | 4.96 | 10.30 | 0 | 0 | 9 | 0.00 | 38.88 | 20.45 | 0.00 | 0.00 | 19.76 |  |  |  |  | D-Pro
